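Interpolation was linear, between the two tested concentrations surrounding the appropriate level; five concentrations were tested over 48 hours in 96-well plates. TGI: total growth inhibition.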
What was measured:
Assay in all cases: NCI anticancer screen, dose series, 48 h
[1] = tested on: SK-MEL-28 melanoma
[2] = tested on: U251 CNS
[3] = tested on: IGROV1 ovarian
[4] = tested on: CAKI-1 renal
[5] = tested on: OVCAR-4 ovarian
[6] = tested on: A549 NSCLC
[7] = tested on: MDA-N
[8] = tested on: MDA-MB-231 breast
[9] = tested on: SR leukemia
[10] = tested on: UO-31 renal
[11] = tested on: RPMI-8226 leukemia
[12] = tested on: A498 renal
[13] = tested on: HCC-2998 colon
[14] = tested on: SF-539 CNS
[15] = tested on: KM12 colon
[16] = tested on: TK-10 renal
[17] = tested on: SNB-75 CNS
[18] = tested on: SK-OV-3 ovarian
[19] = tested on: NCI-H23 lung

Structure (SMILES)	TGI [1] [µM]	TGI [2] [µM]	TGI [3] [µM]	TGI [4] [µM]	TGI [5] [µM]	TGI [6] [µM]	TGI [7] [µM]	TGI [8] [µM]	TGI [9] [µM]	TGI [10] [µM]	TGI [11] [µM]	TGI [12] [µM]	TGI [13] [µM]	TGI [14] [µM]	TGI [15] [µM]	TGI [16] [µM]	TGI [17] [µM]	TGI [18] [µM]	TGI [19] [µM]
Cc1cc(C)c2c(c1)C(=O)C1(C2)Cc2c(ccc(C)c2C)C1=O (centres undefined)	> 100	> 100	> 100	> 100	> 100	> 100	> 100	> 100	> 100	> 100	> 100	> 100	> 100	> 100	> 100	> 100	> 100		
COc1ccc(C(=O)c2ccc(-n3c4ccccc4c4ccc5c(c43)C(=O)C=CC5=O)cc2)cc1		3.54	10.4	0.366	6.37	10.8	7.89	5.22	> 100	1.07	> 100	5.09	11.5	5.78	10	3.76	> 30.9	27.5	5.18
CC(OCc1ccccc1)C(NC(=O)C1CSSCC(NC(=O)C(Cc2ccccc2)NC(=O)OCc2ccccc2)C(=O)NC(Cc2ccccc2)C(=O)NC(Cc2cn(C=O)c3ccccc23)C(=O)NC(CCCCNC(=O)OCc2ccccc2)C(=O)NC(C(C)OCc2ccccc2)C(=O)N1)C(N)=O (centres undefined)	> 100	> 70.7	> 100	> 100	> 79.3	> 100	> 100	37.3	> 93.4	> 100	53.3	63.5	> 32.5	> 100	> 55.5	> 84.8	> 71.3	> 100	> 100
CC(=O)NNc1nc(C)c(C(/C=C/c2ccc(NC(C)=O)cc2)=N/NS(=O)(=O)c2ccc(C)cc2)s1	> 100	> 100	> 100	> 100	> 100	> 100	> 100	> 100	> 100	> 100	> 100	> 100	> 100	> 100	> 100	> 100	> 100	> 100	> 100
O=C(NC/C(Cl)=C/Cl)Nc1cccc2c1CCCC2	> 100	> 100	> 100	> 100	> 100	> 100	> 100	> 100	> 100	> 100	> 100	> 100	> 100	> 100	> 100	> 100	> 100	> 100	> 100
CCOC(=O)CC(N1CC1)N1CC1	> 10	> 10	> 10	> 10	> 10	> 10	> 10	> 10	> 10	> 10	> 10	> 10	> 10	> 10	> 10	> 10	> 10	> 10	> 10
COc1ccccc1OC(=O)/C=C/c1ccccc1	> 100	> 100	> 100	> 100	> 100	> 100	> 100	> 100	> 100	> 100	> 100	> 100	> 100	> 100	> 100	> 100	> 100	> 100	> 100
O=C1/C(=C\c2c(-c3ccccc3)nn(-c3ccccc3)c2O)C(c2ccccc2)=NN1c1ccccc1	> 100	> 100	> 100	> 100	> 100	> 100	> 100	> 100	61.4	> 100	> 100	> 100	> 100	> 100	> 100	> 100	> 100	> 100	> 100
O=C(CCc1cccc(O)c1)NCCc1cccc(OCc2ccccc2)c1	31.8	32	25.2	> 72.2	63.6	> 70.9	39	40.7	> 71.6	33.4	> 60.1	> 55.2	31.7	30.7	21.3	55.2		53.5	45.2
O=C1N[C@@H]2c3c(Br)sc(Br)c3C(=O)[C@@H]2N1	12.3	7.03	7.16	8.56	16.8	30	5.04	10.9	4.72	9.93	18.5	34	3.42	8.88	19.4	6.09	18.4	27.1	17
CNC(=O)OCCN1c2ccccc2Sc2ccccc21	> 100	> 100	> 100	> 100	> 100	> 100	> 100	89.5	> 100	> 100		> 100	> 100	> 100	> 100	> 100		> 100	> 100
CN(CC#N)C(=O)Cc1ccc([N+](=O)[O-])cc1	> 10	> 10	> 10	> 10	> 10	> 10	> 10	> 10	> 10	> 10	> 10	> 10	> 10	> 10	> 10	> 10		> 10	> 10
COc1ccc(Nc2nc3ccccc3nc2C(=O)O)cc1	> 100	> 100	> 100	> 100	> 100	> 100	> 100	> 100	> 100	> 100		> 100	23.1	> 100	> 100	> 100	> 100	> 100	> 100

— PubChem BioAssay (NCI)
